The test system of assay [1] is TS/A (ER+, Her2−) murine mammary cancer cells. Briefly: MTT cell viability assay, TS/A cells. The class given is cell-based. The settings on record: Mus musculus, 24 h, read-out: IC50 on cell viability, TS/A (ER+, Her2−). As for the experimental part:
(§1) Normal or cancer cells (2×10^3 to 1×10^4 cells/well) were seeded in 96-well plate for overnight and treated with different compounds for 24 h to 72 h. Cells growth were determined by MTT-based colorimetric assays according to. Viability of the test cells treated with vehicle (0.5% DMSO) only was defined as 100% viable. Survival of cells after treatment with DETDs was calculated using the following formula: viable cell number (%)=OD570 (treated cell culture)/OD570 (vehicle control)×100.
(§2) Sixty DETDs were derived from parental compound […] and tested for anti-breast cancer cell activity.
Background: Formazan colour is commonly taken as a measure of viable cells.

For assay [2], the system named is MDA-MB-231 (ER−, PR−, Her2−) human breast cancer cells. Description: MTT cell viability assay, MDA-MB-231 cells. The assay is classed as cell-based. The settings on record: Homo sapiens, MDA-MB-231, 24 h, read-out: IC50 on cell viability, MDA-MB-231 (ER−, PR−, Her2−). As for the experimental part: as §1, §2
The subject of assay [3] is MCF-7 (ER+, Her2−) human breast cancer cells. Briefly: MTT cell viability assay, MCF-7 cells. The class given is cell-based. The settings on record: MCF7, 24 h, read-out: IC50 on cell viability, MCF-7 (ER+, Her2−). As for the experimental part:
as §1, §2

For assay [4], the system named is M10 normal mammary epithelial cells. Briefly: MTT cell viability assay, M10 normal cells. The class given is cell-based, human. The settings on record: Homo sapiens, Epithelial cell, 24 h. The procedure:
as §1, §2

The test system of assay [5] is B16-F10 (NRAS mutation). Briefly: MTT cell viability assay, B16-F10 melanoma. The class given is cell-based. Conditions: Mus musculus, B16-F10, 24 h, read-out: IC50 on cell viability, B16-F10 (NRAS mutation). As for the experimental part: as §1
(§3) Several genes are involved in melanoma development and pathology; specifically, mutation in V-raf murine sarcoma viral oncogene homolog B1 (B-RAF) occurs approximately 50-60% and in neuroblastoma RAS viral oncogene homolog (N-RAS) occurs about 30% of malignant melanomas. A spectrum of wild-type or mutated melanoma cell lines including B16-F10, MeWo, A375, A2058, HTB-68, and melanocyte were used to study anti-melanoma cell proliferation activity of parental phytocompound DET and newly synthesized DETDs.

Assay [6] deals with MeWo (No NRAS or BRAF mutation). Description: MTT cell viability assay, MeWo melanoma. The class given is cell-based, human. Conditions: Homo sapiens, MeWo, 24 h. The procedure: as §1, §3
For assay [7], the system named is HTB-68 (NRAS mutation). Description: MTT cell viability assay, HTB-68 melanoma. The class given is cell-based, human. The settings on record: Homo sapiens, 24 h. The procedure: as §1, §3
Assay [8] concerns A2058 (BRAF mutation). Description: MTT cell viability assay, A2058 melanoma. The assay is classed as cell-based, human. Conditions: Homo sapiens, A2058, 24 h. As for the experimental part: as §1, §3
Assay [9] deals with A375 (BRAF mutation). Briefly: MTT cell viability assay, A375 melanoma. The assay is classed as cell-based, human. Conditions: Homo sapiens, A-375, 24 h, read-out: IC50 on cell viability, A375 (BRAF mutation). The procedure:
as §1, §3
To investigate whether or not DETD-35 show synergism with PLX4032 against A375 melanoma cells, we performed anti-proliferation assay using MTT reagent to obtain IC50 of each compound. […] The synergistic effect was quantified by combination index (CI) analysis as stated above.

The subject of assay [10] is Melanocyte (Normal cells). Description: MTT cell viability assay, normal melanocytes. The assay is classed as cell-based, human. Conditions: Homo sapiens, Melanocyte, 24 h. The procedure:
as §1, §3

For assay [11], the system named is RAW264.7 (normal macrophage). Description: MTT cell viability assay, RAW264.7 macrophages. The class given is cell-based, mouse. Conditions: Mus musculus, RAW264.7, 24 h. As for the experimental part:
as §1
(§4) Marcophages (2×10^5 cells/well in 96-well plate) were treated with compounds for 1 h, then incubated further for 24 h with or without the presence of […] LPS in the cultural medium. Nitrite levels in cell culture medium were determined by the Griess reaction method. In parallel to the Griess assays, macrophage cell viabilities were determined using the MTT based colorimetric assay.

Assay [12] deals with LPS-induced nitric oxide (NO) production in RAW 264.7 cells. Briefly: Nitric oxide production in LPS-stimulated macrophages (Griess). The class given is cell-based, mouse. The settings on record: Mus musculus; LPS-stimulated RAW264.7, nitrite 24 h after LPS. As for the experimental part:
as §4
LPS from the outer membrane of Gram-negative bacteria can induce mRNA or protein levels of inducible nitric oxide synthase (iNOS), which catalyzes oxidative deamination of L-arginine to produce nitric oxide (NO). Once NO is predominantly produced, it interacts with superoxide anion and generates highly reactive oxidants resulting in cellular inflammation, DNA, protein and tissue damages, carcinogenesis, and antiapoptosis. We used in vitro LPS stimulated inflammation in RAW264.7 cell system to evaluate the effect of DET and its derivatives DETDs on NO production by determination of nitrite level (equivalent to NO level) in culture medium 24 h after LPS treatment.

Experimental findings from patent US10238631B2, “Sesquiterpene derivatives and their use in inflammation or cancer treatment” (Academia Sinica, priority 2014, dated 2019) are described below.

Like-named read-outs stand apart in the source and are kept apart here.

In the case of `C=C(C)C(=O)O[C@H]1CC2=C[C@@H](C/C(C)=C/[C@H]3OC(=O)[C@@H](CN(C)C)[C@H]13)OC2=O` [DETD-1], the IC50 was 6.2 µM in [1]; greater than 7.5 µM in [2]; greater than 7.5 µM in assay [3]; greater than 7.5 µM in assay [4]; greater than 10 µM in assay [5] (24 h); greater than 10 µM in [6]. The IC50 in [7] is greater than 10 µM; in assay [8] it was greater than 10 µM; in assay [9] (24 h, MTT), greater than 10 µM; in assay [10], greater than 10 µM; in assay [11], greater than 10 µM; in assay [12] it was 5 µM.
Regarding `C=C1C(=O)OC2CC3=C[C@@H](C/C(C)=C/C(O)[C@H]12)OC3=O` (some centres unmarked) [DETD-3], the IC50 in [1] is 7.5 µM; in assay [2] it was greater than 7.5 µM; in assay [3] it was greater than 7.5 µM; in assay [4] it was greater than 7.5 µM; in assay [5] (24 h), greater than 10 µM; in assay [6] it was greater than 10 µM. Also, the IC50 in assay [7] is greater than 10 µM; in assay [8], greater than 10 µM; in assay [9] (24 h, MTT), greater than 10 µM; in assay [10], greater than 10 µM; in assay [11], greater than 10 µM; in assay [12], greater than 10 µM.
For `C=C(C)C(=O)OC1/C=C(\C)C[C@@H]2C=C(CC3OC(=O)C(=C)[C@@H]13)C(=O)O2` (some centres unmarked) [DETD-4], the IC50 in [1] is 1.8 µM; in [2], 6.2 µM; in [3], 3.4 µM; in assay [4], greater than 7.5 µM; in assay [5] (24 h), 4.5 µM; in [6], greater than 10 µM. In addition, the IC50 in assay [7] is greater than 10 µM; in [8], greater than 10 µM; in assay [9] (24 h, MTT), greater than 10 µM; in [10] it was greater than 10 µM; in assay [11], greater than 10 µM; in assay [12] it was 2.2 µM.
Consider `C=C1C(=O)OC2CC3=C[C@@H](C/C(C)=C/C(OC(=O)/C(C)=C/CC)[C@H]12)OC3=O` (some centres unmarked) [DETD-5], for which the IC50 is 1.6 µM in assay [1]; 4.6 µM in assay [2]; 2.4 µM in assay [3]; greater than 7.5 µM in assay [4]; 4.7 µM in assay [5] (24 h); greater than 10 µM in assay [6]. Moreover, the IC50 in [7] was 7.8 µM; in assay [8], 5.8 µM; in assay [9] (24 h, MTT), 4.1 µM; in assay [10], greater than 10 µM; in assay [11] it was greater than 10 µM; in [12], 2.4 µM.
With `C=C1C(=O)OC2CC3=C[C@@H](C/C(C)=C/C(OC(=O)/C=C/c4cc(OC)c(OC)c(OC)c4)[C@H]12)OC3=O` (some centres unmarked) [DETD-7], the IC50 in assay [1] was 1.8 µM; in [2] it was 6.1 µM; in assay [3] it was 2.3 µM; in assay [4], greater than 7.5 µM; in [5] (24 h), 4.8 µM; in assay [6] it was greater than 10 µM. In addition, the IC50 in assay [7] was 8.4 µM; in assay [8], 5.5 µM; in assay [9] (24 h, MTT), 4.9 µM; in assay [10], greater than 10 µM; in [11], greater than 10 µM; in [12], 2.2 µM.
As to `C=C1C(=O)OC2CC3=C[C@@H](C/C(C)=C/C(OC(=O)C=C(C)C)[C@H]12)OC3=O` (some centres unmarked) [DETD-8], the IC50 is 1.9 µM in assay [1]; 6.7 µM in [2]; 3.4 µM in assay [3]; greater than 7.5 µM in assay [4]; 6.8 µM in assay [5] (24 h); greater than 10 µM in assay [6]. Moreover, the IC50 in [7] is greater than 10 µM; in assay [8] it was greater than 10 µM; in assay [9] (24 h, MTT), greater than 10 µM; in assay [10], greater than 10 µM; in assay [11] it was greater than 10 µM; in assay [12], 2.5 µM.
On to `C=C1C(=O)OC2CC3=C[C@@H](C/C(C)=C/C(OC(=O)C(Cl)Cl)[C@H]12)OC3=O` (some centres unmarked) [DETD-9], for which the IC50 in [1] was greater than 7.5 µM; in [2], greater than 7.5 µM; in [3], greater than 7.5 µM; in assay [4], greater than 7.5 µM; in [5] (24 h), greater than 10 µM; in assay [6], greater than 10 µM. Moreover, the IC50 is greater than 10 µM in assay [7]; greater than 10 µM in assay [8]; greater than 10 µM in [9] (24 h, MTT); greater than 10 µM in assay [10]; greater than 10 µM in assay [11]; greater than 10 µM in assay [12].
As to `C=C1C(=O)OC2CC3=C[C@@H](C/C(C)=C/C(OC(=O)CC(C)C)[C@H]12)OC3=O` (some centres unmarked) [DETD-10], the IC50 in [1] was 2.7 µM; in assay [2], 5.9 µM; in assay [3], 3.4 µM; in [4], greater than 7.5 µM; in [5] (24 h), 6 µM; in assay [6], greater than 10 µM. Besides, the IC50 is greater than 10 µM in assay [7]; greater than 10 µM in assay [8]; greater than 10 µM in assay [9] (24 h, MTT); greater than 10 µM in [10]; greater than 10 µM in [11]; 1.8 µM in assay [12].
Turning to `C=C1C(=O)OC2CC3=C[C@@H](C/C(C)=C/C(OC(=O)CC(C)(CC)OC(C)=O)[C@H]12)OC3=O` (some centres unmarked) [DETD-11], the IC50 in [1] was 2.9 µM; in assay [2] it was greater than 7.5 µM; in assay [3], 4.2 µM; in assay [4] it was greater than 7.5 µM; in [5], greater than 10 µM; in assay [6] it was greater than 10 µM. For the same compound, the IC50 is greater than 10 µM in assay [7]; greater than 10 µM in [8]; greater than 10 µM in assay [9]; greater than 10 µM in assay [10]; greater than 10 µM in assay [11]; 2.3 µM in assay [12].
Turning to `C=C1C(=O)OC2CC3=C[C@@H](C/C(C)=C/C(OC(=O)/C=C(\C)C(C)C)[C@H]12)OC3=O` (some centres unmarked) [DETD-12], the IC50 in [1] is 3.3 µM; in [2] it was 7 µM; in assay [3], 4.2 µM; in assay [4] it was greater than 7.5 µM; in assay [5] (24 h) it was 7.2 µM; in assay [6], greater than 10 µM. The IC50 in assay [7] was greater than 10 µM; in [8], greater than 10 µM; in assay [9] (24 h, MTT) it was greater than 10 µM; in [10], greater than 10 µM; in assay [11], greater than 10 µM; in [12], 3.2 µM.
Consider `C=C1C(=O)OC2CC3=C[C@@H](C/C(C)=C/C(OC(=O)C(C)CC)[C@H]12)OC3=O` (some centres unmarked) [DETD-13], for which the IC50 was 1.9 µM in assay [1]; 7.5 µM in [2]; 3.7 µM in assay [3]; greater than 7.5 µM in [4]; 7.1 µM in [5] (24 h); greater than 10 µM in [6]. The IC50 in assay [7] is greater than 10 µM; in assay [8] it was greater than 10 µM; in assay [9] (24 h, MTT), greater than 10 µM; in assay [10], greater than 10 µM; in assay [11], greater than 10 µM; in assay [12], 2 µM.
Turning to `C=C1C(=O)OC2CC3=C[C@@H](C/C(C)=C/C(OC(=O)C4CCCCC4)[C@H]12)OC3=O` (some centres unmarked) [DETD-38], the IC50 in assay [1] was 2.6 µM; in assay [2], 5.2 µM; in [3], 4.6 µM; in [4], greater than 7.5 µM; in assay [5] (24 h) it was 3.9 µM; in assay [6], greater than 10 µM. Moreover, the IC50 in assay [7] was 9.5 µM; in assay [9] (24 h, MTT), 5.1 µM; in assay [10] it was greater than 10 µM; in assay [11], greater than 10 µM; in assay [12], 1.7 µM.
